These results are taken from US20220056014A1, “PHENYLPYRROLIDINE COMPOUND AND USE THEREOF” (WUHAN HUMANWELL INNOVATIVE DRUG RESEARCH AND DEVELOPMENT …, priority 2018, published 2022).

Assay [1] has as its target T1, PDE4B (Homo sapiens, UniProt Q07343).
T1 construct: purchased Enzo Life Sciences BML-SE522-0020
In words: PDE4B enzyme activity assay (PDE-Glo Phosphodiesterase Assay Kit). The following applies: for IC50 (PDE4D)/IC50 (PDE4B): selectivity ratio. The assay is classed as biochemical. In short, it runs like this:
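Recombinant human PDE4B (1 ng/μl working solution) or PDE4D (4 ng/μl working solution) preincubated 5 min at RT with compound, then reacted 20 min with cAMP (2 μM in added solution). PDE-Glo termination/detection and Kinase-Glo steps followed; luminescence read and IC50 fitted.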

Assay [2] deals with LPS-induced secretion of TNFα in human PBMCs. In words: LPS-induced secretion of TNFα in human PBMCs. Type of assay: cell-based. As to conditions: Homo sapiens, PBMC, 24 h, LPS 10 ng/ml. In short, it runs like this:
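PBMCs isolated by Lymphoprep density centrifugation were seeded at 5×10^4/well in RPMI1640 + 10% FBS and given compound, with 30 min pre-incubation, then stimulated with 10 ng/ml LPS (final). After 24 h, supernatant TNF-α was measured by ELISA kit.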

The subject of assay [3] is Mouse CIA arthritis model. As to the kind of experiment: Mouse CIA arthritis model test. The following applies: 30 mg/kg oral, twice a day for 21 days; for inhibition rate based on clinical score AUC: AUC day 21 to day 42; for Clinical score (endpoint): day 42, highest score 16. The assay is classed as in vivo, DBA/1 mice. The procedure:
(1) Preparation of Type II Collagen/Complete Freund's Adjuvant
Preparation of acetic acid: 2N acetic acid was diluted to 100 mM, filtered with 0.22 μm filter membrane, and stored at 4° C.
Preparation of bovine type II collagen solution: bovine type II collagen (CII) was dissolved in 100 mM acetic acid solution and stored at 4° C. overnight. A final concentration of collagen was 8 mg/mL.
Preparation of emulsion: the CII solution stored overnight was mixed with an equal volume of complete Freund's adjuvant, and homogenized on ice by a high-speed homogenizer at 30,000 rpm for approximately 60 min, until the solution formed a stable emulsion.
After DBA/1 mice were anesthetized with isoflurane, 50 μl of prepared collagen emulsion (containing 200 micrograms of CII) was injected subcutaneously in the tail (2-3 cm from the base of the tail) for immunization. The day of the primary immunization was recorded as day 0, and the following days were recorded sequentially. On day 21, the same volume of collagen emulsion was injected into the tail in the same way. Mice in the normal group were not immunized.
On day 21, the mice that had been induced to have arthritis were randomly grouped according to their body weights, such that the average body weight of each group was consistent, and they were randomly divided into 6 treatment groups for administration, with 10 mice in each group.
G1 group included normal mice without being treated; G2 group was given a blank vehicle; G3 to G7 groups were administrated with the compound at a dose of 30 mg/kg, twice a day for 21 days. The volume of oral administration was 10 mL/kg.
After the enhanced immunization, the disease incidence of the mice was observed every day. When the mice began to develop symptoms (clinical symptoms of arthritis emerged), the symptoms were graded as 0 to 4 according to the different degrees of pathological changes (redness, joint deformation), where the highest score for each limb was 4, and the highest score for each animal was 16. The mice were graded at least three times a week.
The area under curve (AUC) of clinical scores of each group from day 21 to day 42 was calculated, and the inhibition rate % of the clinical score AUC of the administration group was calculated:
Inhibition rate %=1−(administration group AUC/blank vehicle group AUC)*100%
The experimental data are expressed as Mean±standard error (Mean±SEM), and the clinical scores were analyzed with One-way ANOVA, where p<0.05 was considered to be a significant difference.

T1 sequence (Q07343 whole entry): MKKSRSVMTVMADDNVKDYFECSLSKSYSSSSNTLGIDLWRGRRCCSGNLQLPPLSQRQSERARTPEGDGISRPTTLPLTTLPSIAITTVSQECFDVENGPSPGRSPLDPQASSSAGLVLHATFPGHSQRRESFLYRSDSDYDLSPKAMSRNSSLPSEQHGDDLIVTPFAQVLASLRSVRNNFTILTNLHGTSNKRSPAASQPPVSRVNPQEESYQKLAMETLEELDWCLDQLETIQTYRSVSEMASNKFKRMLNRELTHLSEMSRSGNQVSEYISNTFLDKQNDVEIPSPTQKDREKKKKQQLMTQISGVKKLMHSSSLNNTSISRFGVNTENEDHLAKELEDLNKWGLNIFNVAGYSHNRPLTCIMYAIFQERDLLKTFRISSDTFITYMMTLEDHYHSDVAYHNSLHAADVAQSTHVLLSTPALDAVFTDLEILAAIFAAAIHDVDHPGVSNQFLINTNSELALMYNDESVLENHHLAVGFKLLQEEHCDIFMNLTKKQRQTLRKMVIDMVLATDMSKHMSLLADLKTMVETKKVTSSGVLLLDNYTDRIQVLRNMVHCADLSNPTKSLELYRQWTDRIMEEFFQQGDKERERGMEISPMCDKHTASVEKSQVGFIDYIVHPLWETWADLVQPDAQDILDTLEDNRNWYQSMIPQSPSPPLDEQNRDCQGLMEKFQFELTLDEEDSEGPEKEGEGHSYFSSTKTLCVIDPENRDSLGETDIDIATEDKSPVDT

Regarding `COc1ccc([C@@H]2CN(C(=O)[C@@H](O)CO)C[C@@]2(C)[C@@H](C)O)cc1OC1CN(c2ncc(C)cc2F)C1` [Compound 004, (S)-1-((3S,4S)-4-(3-((1-(3-fluoro-5-methylpyridin-2-yl)azetidin-3-yl)oxy)-4-methoxyphenyl)-3-((R)-1-hydroxyethyl)-3-methylpyrrolidin-1-yl)-2,3-dihydroxypropan-1-one], in assay [1], the midpoint of inhibition, the IC50, lay at 0.93 nM and the “IC50 (PDE4D)/IC50 (PDE4B)” value is 1.20. For the same compound, the midpoint of inhibition in assay [2], the IC50, lay at 5.13 nM. In addition, in assay [3], the “inhibition rate based on clinical score AUC” value (shortened to “inhibition rate based”) stood at 67.5% and the “Clinical score (endpoint)” value is given as 3.3.
Regarding `COc1ccc([C@@H]2CN(C(=O)[C@@H](O)CO)C[C@@]2(C)[C@@H](C)O)cc1OC1CN(c2ccc(C)c(C)n2)C1` [Compound 007, (S)-1-((3S,4S)-4-(3-((1-(5,6-dimethylpyridin-2-yl)azetidin-3-yl)oxy)-4-methoxyphenyl)-3-((R)-1-hydroxyethyl)-3-methylpyrrolidin-1-yl)-2,3-dihydroxypropan-1-one], in assay [1], the IC50 was determined as 1.17 nM and the “IC50 (PDE4D)/IC50 (PDE4B)” value amounted to 3.37. The 50% inhibitory concentration (IC50) in assay [2] worked out at 2.24 nM. In assay [3], the “inhibition rate based” value is 77.2% and the “Clinical score (endpoint)” value came out at 3.1.
Consider `COc1ccc([C@@H]2CN(C(=O)[C@@H](O)CO)C[C@@]2(C)[C@@H](C)O)cc1OC1CN(c2ccc(Cl)c(C)n2)C1` [Compound 011, (S)-1-((3S,4S)-4-(3-((1-(5-chloro-6-methylpyridin-2-yl)azetidin-3-yl)oxy)-4-methoxyphenyl)-3-((R)-1-hydroxyethyl)-3-methylpyrrolidin-1-yl)-2,3-dihydroxypropan-1-one], for which, in assay [1], the IC50 worked out at 2.31 nM and the “IC50 (PDE4D)/IC50 (PDE4B)” value is recorded as 0.46. In assay [2], this compound gave an IC50 of 1.55 nM. Also, in assay [3], the “inhibition rate based” value was found to be 49.3% and the “Clinical score (endpoint)” value stood at 4.8.
Regarding `COc1ccc([C@@H]2CN(C(=O)[C@@H](O)CO)C[C@@]2(C)[C@@H](C)O)cc1OC1CN(c2ccc(C)cn2)C1` [Positive control compound, reference compound], in assay [1], the IC50 amounted to 2.1 nM and the “IC50 (PDE4D)/IC50 (PDE4B)” value turned out to be 0.20. In assay [2], this compound gave an IC50 of 3.32 nM. For the same compound, in assay [3], the “inhibition rate based” value turned out to be 42.3% and the “Clinical score (endpoint)” value stood at 4.4.

For orientation: IC50 means the concentration at which inhibition is half-maximal.
